Laboratory results: ChEMBL document CHEMBL3507680, “University of Dundee, Gates Library screen for HepG2 cell viability”

Assay: Human HepG2 cell viability assay in 384 well format
Assay type: toxicity, cell-based
Design: dose 125 nL, time 70.5 hour; concentration not given beside the values
Conditions: HepG2 cells, read-out: Inhibition

Row | SMILES | cytotoxicity at 70.5 h
1 | CC(C)OCCC(=O)Nc1cc(C(=O)N(C)C(C)C)ccc1Cl | 4.24%
2 | CCS(=O)(=O)CC(=O)N1CCCC1c1noc(C2CC2)n1 (stereo not given) | -8.04%
3 | CCC(=O)N1CCCC(C(=O)N2CCN(c3cnn(C)c(=O)c3)CC2)C1 (stereo not given) | -12.7%
4 | Cc1nn(C)c(C)c1-c1cnc(CC2CCNC2)cn1 (stereo not given) | -4.3%
5 | Cc1cc2occ(CC(=O)N3CCC(O)(CN(C)C)C3)c2cc1Cl (stereo not given) | -5.39%
6 | Cc1nn(C)c(C)c1NC(=O)c1cccc(CN2CC[C@H](O)C2)c1 | -0.546%
7 | CCc1cc(CN(C)Cc2nc(-c3ccc(OC)cc3F)oc2C)on1 | -5.4%
8 | Cc1ccc(CNC(CN2CCN(C)CC2)c2ccccc2)cc1C (stereo not given) | 35.8%
9 | CC(C)n1nc2c(cc1=O)CN(CC1CCCCO1)CC2 (stereo not given) | -5.1%
10 | CC(=O)N1CCN(c2cc(C3CN(C(C)=O)CCO3)nc(C)n2)CC1 (stereo not given) | -4.45%
11 | CC(C)C(=O)N1CCC2(CC1)NC(=O)[C@H]1CN(Cc3cccnc3)C[C@H]12 | 4.61%
12 | CN(CCc1ccccn1)C(=O)c1cn2c(n1)CNCC2 | -8.81%
13 | COc1ccc(NC(C)C(=O)N2CCN(c3ncccn3)CC2)cn1 (stereo not given) | 2.09%
14 | COc1cc2c(cc1CN1CCCCC1CN1CCOCC1)CCC2 (stereo not given) | 1.06%
15 | CC(=O)NCC(=O)N1C[C@@H]2CC[C@H](Oc3ccccc3Cl)[C@@H]2C1 | 12.5%
16 | CC(C)NC(=O)CN(C1CC1)C(C)C1CC1 (stereo not given) | -3.55%
17 | Cc1ccc(OCc2ccc(C(=O)O)s2)cc1C | -6.36%
18 | O=C(c1ccccc1)N1CC(C(=O)N2CCOCC2)C2(CCOCC2)C1 (stereo not given) | 7.01%
19 | COc1cc(Oc2ccc(C(N)=O)cn2)ccc1CN1CCCC1 | -6.89%
20 | CCc1ccc(CNc2ccccc2CN2CCC(O)CC2)o1 | -9.23%
21 | O=C(Nc1cnc(Oc2ccccc2)nc1)C1CC1 | -2.39%
22 | COc1cc(N2CCC(c3nccn3CCCN(C)C)CC2)nc(N)n1 | -1.61%
23 | COCCOc1ncccc1-c1noc([C@@H]2CCCN2C2CCC2)n1 | -10.3%

Row | SMILES | cytotoxicity at 70.5 h
24 | CC(CNC(=O)NCCCc1cc(N)n(-c2ccccc2)n1)N(C)C (stereo not given) | -8.44%
25 | FC(F)(F)c1cccc(OC2CCN(Cc3ncc[nH]3)CC2)c1 | -0.255%
26 | CN(C)c1cc(C(=O)NCCc2n[nH]c(=O)[nH]2)ccn1 | -5.07%
27 | O=C(CSC1CCc2ccccc2NC1=O)NCCO (stereo not given) | 2.81%
28 | CCn1cc(-c2cc(C(F)(F)F)nc(NC3CCCC3)n2)c(C)n1 | -6.79%
29 | Cc1cc(C)nc(N2CCCC2c2cccnc2)n1 (stereo not given) | -2.91%
30 | CC(=O)NC1(C(=O)N2CCC(Nc3cccnn3)CC2)CCCCC1 | 3.94%
31 | Cc1ccsc1[C@@H]1CCN(C(=O)CCCn2cncn2)C[C@H]1O | -7.81%
32 | Cc1cc(CN2CCN(C(=O)NC(C)c3cccnc3)CC2)no1 (stereo not given) | -8.62%
33 | Cc1[nH]nc2ncc(C(=O)N3CCN(CCC(C)C)CC3)cc12 | 25.8%
34 | Cc1nc(C2CCCN2CC(=O)Nc2c(C)n[nH]c2C)no1 (stereo not given) | 39%
35 | COCCN1C(=O)CCC12CCN(C(=O)NC(C)C)CC2 | -25.3%
36 | Fc1cccc(Oc2nccnc2C2CCN(C3CCOCC3)CC2)c1 | 0.625%
37 | O=C1[C@H]2CN(Cc3ccncc3)C[C@H]2CN1c1cncnc1 | -0.121%
38 | Cc1ncsc1CCN(C)C(=O)C(c1cccnc1)N1CCOCC1 (stereo not given) | -5.13%
39 | Cc1nc(N(C)C2CCCCC2)ncc1C(C)NC(=O)c1cccnc1 (stereo not given) | -5.07%
40 | Oc1ccccc1-c1cc(-c2nc(C3CC3)n[nH]2)[nH]n1 | -6.44%
41 | CC(C)c1nc(C2CCCN2c2ncc(C(N)=O)cc2Cl)no1 (stereo not given) | 12.4%
42 | CC(C)OC(=O)NCc1ccc(NCc2cnn(C(C)(C)C)c2)cc1 | -13.1%
43 | O=C1NCC2=C1C(c1ccc(O)cc1)Nc1ccccc1N2 (stereo not given) | -6.66%
44 | Cc1cc(C(=O)NCc2cccnc2N2CCCC(O)C2)[nH]n1 (stereo not given) | -16.1%
45 | COc1cc(C)ccc1OCc1nc(C(=O)N2CCC(C)CC2)co1 | -2.55%
